Article PMC6327040, “A novel scaffold for EGFR inhibition: Introducing N-(3-(3-phenylureido)quinoxalin-6-yl) acrylamide derivatives” (Scientific Reports, 2019)
Each block holds one molecule with its values, some of them ahead of it.

Experiments:
[1] = molecular target: EGFRwt (Homo sapiens, UniProt P00533); assay: HTRF KinEASE-TK biochemical assay (TR-FRET), EGFRwt; details: for inhibitory activity on EGFRwt (in words): enzymatic in vitro determination
Experimental: (§2) An artificial substrate peptide (TK-substrate from Cisbio) was phosphorylated by EGFR. After completion of the reaction (reaction times: 25 min for wild-type, 15 min for L858R, 20 min for T790M/L858R), the reaction was stopped by addition of a buffer containing EDTA as well as, an anti-phosphotyrosine antibody labeled with europium cryptate and streptavidin labeled with the fluorophore XL665. FRET between europium cryptate and XL665 was measured after an additional hour of incubation to quantify the phosphorylation of the substrate peptide. […] Kinase and inhibitor were preincubated for 30 min (EGFR-wt) and 1 h (EGFR-L858R and EGFR-L858R/T790M) before the reaction was started by addition of ATP and substrate peptide. An EnVision multimode plate reader (Perkin Elmer) was used to measure the fluorescence of the samples at 620 nm (Eu-labeled antibody) and 665 nm (XL665 labeled streptavidin) 50 μs after excitation at 320 nm. The quotient of both intensities for reactions made with eight different inhibitor concentrations was then analyzed using the Quattro Software Suite for IC50-determination. Each reaction was performed in duplicate, and at least three independent determinations of each IC50 were made.

[2] = molecular target: EGFRL858R/T790M (Homo sapiens, UniProt P00533, L858R/T790M); assay: HTRF KinEASE-TK biochemical assay (TR-FRET), EGFR-L858R/T790M; details: for inhibitory activity on EGFRL858R/T790M (in words): enzymatic in vitro determination
Experimental: as §2

[3] = molecular target: EGFRL858R (Homo sapiens, UniProt P00533, L858R); assay: HTRF KinEASE-TK biochemical assay (TR-FRET), EGFR-L858R; details: for inhibitory activity on EGFRL858R (in words): enzymatic in vitro determination
Experimental: as §2

[4] = test system: patient-derived tumor cell panel; assay: Patient-derived tumor cell panel screening (Oncotest); type: cell-based; details: for tumor cell lines' growth inhibition / cytotoxic activity (in words): single screening concentration of 10 μM
Experimental: (§1) Based on this premise, the inhibitory activity of compounds 7a-m towards a patient-derived tumor cell panel[49] was evaluated, using a single screening concentration of 10 μM. […] In fact, it is worth mentioning that, although the data observed in a cellular assay have no direct correlation to EGFR enzymatic tests, this phenomenon is not unusual and is related to the nature of the assays itself. In enzymatic assays there is no influence of membrane permeability issues, while in cell viability assays compounds must penetrate the cell membrane and resist the cellular environment for long enough for the ligand-receptor interaction to occur and to trigger the biological activity.

[5] = test system: CNXF A172; assay: PD tumor cell line growth inhibition; type: cell-based; details: Homo sapiens, A 172, Glioblastoma, read-out: % inhibition (cellular growth inhibition related to negative control)
Experimental: as §1

[6] = test system: MAXF 401NL; assay: PD tumor cell line growth inhibition; type: cell-based; details: Breast, read-out: % inhibition (cellular growth inhibition related to negative control)
Experimental: as §1

[7] = test system: CXF DIFI; assay: PD tumor cell line growth inhibition; type: cell-based; details: Homo sapiens, Colon, EGFRdel-exon19 expressed, read-out: % inhibition (cellular growth inhibition related to negative control)
Experimental: as §1

[8] = test system: GXF 251L; assay: PD tumor cell line growth inhibition; type: cell-based; details: Stomach, EGFRdel-exon19 expressed, read-out: % inhibition (cellular growth inhibition related to negative control)
Experimental: as §1

[9] = test system: MEXF 276L; assay: PD tumor cell line growth inhibition; type: cell-based; details: Homo sapiens, MEXF276L, Melanoma, read-out: % inhibition (cellular growth inhibition related to negative control)
Experimental: as §1

[10] = test system: MEXF 1539L; assay: PD tumor cell line growth inhibition; type: cell-based; details: Melanoma, read-out: % inhibition (cellular growth inhibition related to negative control)
Experimental: as §1

[11] = test system: LXFL H460; assay: PD tumor cell line growth inhibition; type: cell-based; details: Homo sapiens, NCI-H460, Lung, read-out: % inhibition (cellular growth inhibition related to negative control)
Experimental: as §1

[12] = test system: RXF 786-O; assay: PD tumor cell line growth inhibition; type: cell-based; details: Homo sapiens, 786-0, Kidney, read-out: % inhibition (cellular growth inhibition related to negative control)
Experimental: as §1

[13] = test system: LXFA 629L; assay: PD tumor cell line growth inhibition; type: cell-based; details: Lung, read-out: % inhibition (cellular growth inhibition related to negative control)
Experimental: as §1

[14] = test system: MAXF MCF7; assay: PD tumor cell line growth inhibition; type: cell-based; details: Homo sapiens, Breast, read-out: % inhibition (cellular growth inhibition related to negative control)
Experimental: as §1

[15] = test system: CXF HCT116; assay: PD tumor cell line growth inhibition; type: cell-based; details: Homo sapiens, HCT-116, Colon, read-out: % inhibition (cellular growth inhibition related to negative control)
Experimental: as §1

[16] = test system: MEXF 1737l; assay: PD tumor cell line growth inhibition; type: cell-based; details: Melanoma, read-out: % inhibition (cellular growth inhibition related to negative control)
Experimental: as §1

[17] = test system: SXF1301L; assay: PD tumor cell line growth inhibition; type: cell-based; details: Sarcoma, read-out: % inhibition (cellular growth inhibition related to negative control)
Experimental: as §1

[18] = test system: CXF Colo205; assay: PD tumor cell line growth inhibition; type: cell-based; details: Homo sapiens, COLO 205, Colon, read-out: % inhibition (cellular growth inhibition related to negative control)
Experimental: as §1

[19] = test system: MAXF MDA231; assay: PD tumor cell line growth inhibition; type: cell-based; details: Homo sapiens, MDA-MB-231, Breast, read-out: % inhibition (cellular growth inhibition related to negative control)
Experimental: as §1

[20] = test system: RXF 486L; assay: PD tumor cell line growth inhibition; type: cell-based; details: Kidney, read-out: % inhibition (cellular growth inhibition related to negative control)
Experimental: as §1

[21] = test system: BXF 1218L; assay: PD tumor cell line growth inhibition; type: cell-based; details: Bladder, read-out: % inhibition (cellular growth inhibition related to negative control)
Experimental: as §1

[22] = test system: CXF SW620; assay: PD tumor cell line growth inhibition; type: cell-based; details: Homo sapiens, SW-620, Colon, read-out: % inhibition (cellular growth inhibition related to negative control)
Experimental: as §1

[23] = test system: BXF T24; assay: PD tumor cell line growth inhibition; type: cell-based; details: Bladder, read-out: % inhibition (cellular growth inhibition related to negative control)
Experimental: as §1

[24] = test system: PAXF 1657l; assay: PD tumor cell line growth inhibition; type: cell-based; details: Pancreas, read-out: % inhibition (cellular growth inhibition related to negative control)
Experimental: as §1

[25] = test system: LXFA PC9; assay: PD tumor cell line growth inhibition; type: cell-based; details: Lung, EGFRdel-exon19 expressed, read-out: % inhibition (cellular growth inhibition related to negative control)
Experimental: as §1

[26] = test system: CXF RKO; assay: PD tumor cell line growth inhibition; type: cell-based; details: Colon, read-out: % inhibition (cellular growth inhibition related to negative control)
Experimental: as §1

[27] = test system: LXFA NCI-H1975; assay: PD tumor cell line growth inhibition; type: cell-based; details: Homo sapiens, Lung, read-out: % inhibition (cellular growth inhibition related to negative control)
Experimental: as §1

[28] = test system: PAXF 546L; assay: PD tumor cell line growth inhibition; type: cell-based; details: Pancreas, read-out: % inhibition (cellular growth inhibition related to negative control)
Experimental: as §1

[29] = test system: LXFL 529L; assay: PD tumor cell line growth inhibition; type: cell-based; details: Lung, EGFR overexpressed, read-out: % inhibition (cellular growth inhibition related to negative control)
Experimental: as §1

[30] = test system: LIXF 575L; assay: PD tumor cell line growth inhibition; type: cell-based; details: Liver, read-out: % inhibition (cellular growth inhibition related to negative control)
Experimental: as §1

[31] = test system: UXF 1138L; assay: PD tumor cell line growth inhibition; type: cell-based; details: Uterus, read-out: % inhibition (cellular growth inhibition related to negative control)
Experimental: as §1

[32] = test system: PRXF DU145; assay: PD tumor cell line growth inhibition; type: cell-based; details: Homo sapiens, DU-145, Prostate, read-out: % inhibition (cellular growth inhibition related to negative control)
Experimental: as §1

[33] = test system: GXA MKN45; assay: PD tumor cell line growth inhibition; type: cell-based; details: Homo sapiens, MKN-45, Stomach, read-out: % inhibition (cellular growth inhibition related to negative control)
Experimental: as §1

[34] = test system: OVXF 899L; assay: PD tumor cell line growth inhibition; type: cell-based; details: Ovary, read-out: % inhibition (cellular growth inhibition related to negative control)
Experimental: as §1

Chain of EGFRwt (P00533 25-1210): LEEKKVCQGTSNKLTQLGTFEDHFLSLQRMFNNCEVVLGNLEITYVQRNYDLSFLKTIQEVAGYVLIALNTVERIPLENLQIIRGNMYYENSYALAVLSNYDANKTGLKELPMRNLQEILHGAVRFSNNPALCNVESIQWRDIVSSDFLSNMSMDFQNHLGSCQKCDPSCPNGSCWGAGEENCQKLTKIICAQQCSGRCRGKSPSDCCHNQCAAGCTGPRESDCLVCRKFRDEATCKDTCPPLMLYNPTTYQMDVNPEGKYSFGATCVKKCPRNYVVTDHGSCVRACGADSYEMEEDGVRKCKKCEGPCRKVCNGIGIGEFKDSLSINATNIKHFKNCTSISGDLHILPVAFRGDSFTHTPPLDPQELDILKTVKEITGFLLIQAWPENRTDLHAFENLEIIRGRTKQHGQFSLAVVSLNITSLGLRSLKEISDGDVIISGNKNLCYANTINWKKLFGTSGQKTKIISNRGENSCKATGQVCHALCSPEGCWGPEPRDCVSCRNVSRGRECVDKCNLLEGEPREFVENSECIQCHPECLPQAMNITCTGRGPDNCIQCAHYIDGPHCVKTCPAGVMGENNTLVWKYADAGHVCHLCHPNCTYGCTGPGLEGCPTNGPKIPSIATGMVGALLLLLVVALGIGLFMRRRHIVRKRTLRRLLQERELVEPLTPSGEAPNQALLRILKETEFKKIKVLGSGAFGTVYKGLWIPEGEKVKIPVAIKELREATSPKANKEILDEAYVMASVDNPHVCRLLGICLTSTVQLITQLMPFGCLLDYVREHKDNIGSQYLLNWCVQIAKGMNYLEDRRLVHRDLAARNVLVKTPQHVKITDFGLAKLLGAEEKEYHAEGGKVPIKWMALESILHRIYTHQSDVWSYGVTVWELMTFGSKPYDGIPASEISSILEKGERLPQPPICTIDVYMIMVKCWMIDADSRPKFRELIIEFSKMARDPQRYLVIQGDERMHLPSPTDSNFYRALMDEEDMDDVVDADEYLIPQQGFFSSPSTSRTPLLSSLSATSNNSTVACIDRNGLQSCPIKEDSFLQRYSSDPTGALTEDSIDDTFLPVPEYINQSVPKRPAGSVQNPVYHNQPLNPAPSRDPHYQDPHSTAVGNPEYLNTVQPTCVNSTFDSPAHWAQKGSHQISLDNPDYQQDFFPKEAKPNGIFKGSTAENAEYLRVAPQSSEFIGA
Chain of EGFRL858R/T790M (P00533 25-1210 T790M/L858R): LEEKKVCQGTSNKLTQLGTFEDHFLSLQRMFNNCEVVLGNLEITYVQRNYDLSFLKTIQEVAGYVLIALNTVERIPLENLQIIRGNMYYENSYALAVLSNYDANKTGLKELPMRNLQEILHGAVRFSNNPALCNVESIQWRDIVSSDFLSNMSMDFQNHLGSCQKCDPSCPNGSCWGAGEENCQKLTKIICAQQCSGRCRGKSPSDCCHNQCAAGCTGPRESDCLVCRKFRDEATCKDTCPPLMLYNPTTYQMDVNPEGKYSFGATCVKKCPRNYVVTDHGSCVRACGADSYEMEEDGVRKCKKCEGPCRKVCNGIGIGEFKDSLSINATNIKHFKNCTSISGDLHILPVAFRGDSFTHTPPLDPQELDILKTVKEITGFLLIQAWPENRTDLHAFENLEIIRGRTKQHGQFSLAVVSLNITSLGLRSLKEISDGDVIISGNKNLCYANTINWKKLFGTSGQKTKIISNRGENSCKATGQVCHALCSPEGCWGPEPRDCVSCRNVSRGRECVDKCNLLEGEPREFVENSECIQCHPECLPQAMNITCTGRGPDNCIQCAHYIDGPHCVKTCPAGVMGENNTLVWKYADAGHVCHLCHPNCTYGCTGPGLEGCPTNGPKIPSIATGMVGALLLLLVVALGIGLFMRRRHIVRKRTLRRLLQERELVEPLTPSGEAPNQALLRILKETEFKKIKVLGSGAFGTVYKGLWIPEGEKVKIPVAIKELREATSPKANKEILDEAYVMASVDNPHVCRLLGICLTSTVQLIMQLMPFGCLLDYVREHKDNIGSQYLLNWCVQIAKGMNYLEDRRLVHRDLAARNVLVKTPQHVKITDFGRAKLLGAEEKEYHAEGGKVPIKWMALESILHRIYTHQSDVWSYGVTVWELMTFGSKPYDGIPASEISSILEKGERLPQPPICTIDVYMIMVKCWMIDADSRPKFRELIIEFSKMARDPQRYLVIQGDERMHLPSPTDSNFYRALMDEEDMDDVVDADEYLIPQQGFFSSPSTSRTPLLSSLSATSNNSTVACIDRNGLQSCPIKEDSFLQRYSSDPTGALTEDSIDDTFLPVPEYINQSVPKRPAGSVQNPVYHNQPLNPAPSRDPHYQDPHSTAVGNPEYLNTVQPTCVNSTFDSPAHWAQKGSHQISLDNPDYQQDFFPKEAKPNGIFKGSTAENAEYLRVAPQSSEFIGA
Chain of EGFRL858R (P00533 25-1210 L858R): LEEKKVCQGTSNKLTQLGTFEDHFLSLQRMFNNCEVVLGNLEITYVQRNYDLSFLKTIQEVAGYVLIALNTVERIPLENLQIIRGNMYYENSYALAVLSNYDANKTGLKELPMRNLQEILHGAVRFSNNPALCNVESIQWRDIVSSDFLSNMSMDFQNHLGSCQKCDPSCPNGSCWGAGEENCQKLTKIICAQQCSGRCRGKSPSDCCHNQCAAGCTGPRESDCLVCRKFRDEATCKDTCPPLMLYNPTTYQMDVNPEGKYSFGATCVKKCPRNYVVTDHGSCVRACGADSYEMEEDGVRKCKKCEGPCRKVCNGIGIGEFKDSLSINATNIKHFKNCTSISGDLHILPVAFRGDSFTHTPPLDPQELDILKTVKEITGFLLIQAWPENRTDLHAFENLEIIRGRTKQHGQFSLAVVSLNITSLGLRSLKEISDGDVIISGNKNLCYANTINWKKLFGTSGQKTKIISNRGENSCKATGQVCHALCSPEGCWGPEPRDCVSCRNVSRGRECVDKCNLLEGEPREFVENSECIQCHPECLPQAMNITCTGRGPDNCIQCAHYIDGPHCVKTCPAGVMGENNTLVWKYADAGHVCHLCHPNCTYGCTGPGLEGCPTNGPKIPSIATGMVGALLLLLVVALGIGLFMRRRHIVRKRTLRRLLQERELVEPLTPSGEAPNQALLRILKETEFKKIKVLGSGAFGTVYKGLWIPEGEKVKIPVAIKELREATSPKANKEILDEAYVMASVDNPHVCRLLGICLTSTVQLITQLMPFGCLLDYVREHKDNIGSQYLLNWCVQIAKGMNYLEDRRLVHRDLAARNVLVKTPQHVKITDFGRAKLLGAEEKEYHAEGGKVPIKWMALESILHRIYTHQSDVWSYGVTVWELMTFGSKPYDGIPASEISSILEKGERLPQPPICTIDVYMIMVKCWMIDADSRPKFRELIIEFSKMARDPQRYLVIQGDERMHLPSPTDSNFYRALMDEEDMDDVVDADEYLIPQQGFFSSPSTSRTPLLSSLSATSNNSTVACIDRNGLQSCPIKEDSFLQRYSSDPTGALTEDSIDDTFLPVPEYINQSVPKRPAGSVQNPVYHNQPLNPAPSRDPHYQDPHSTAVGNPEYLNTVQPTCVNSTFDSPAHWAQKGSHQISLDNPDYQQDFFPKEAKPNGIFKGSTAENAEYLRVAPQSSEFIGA

IC50 [1]: > 10 µM
melting point: 272 to 274 °C
IC50 [2]: > 10 µM
IC50 [3]: > 10 µM
SMILES: C=CC(=O)Nc1ccc2ncc(NC(=O)Nc3ccc(Cl)c(C(F)(F)F)c3)nc2c1 [Compound 7a, N-(3-(3-(4-chloro-3-(trifluoromethyl)phenyl)ureido)quinoxalin-6-yl) acrylamide]

IC50 [1]: > 10 µM
melting point: 277 to 280 °C
IC50 [2]: > 10 µM
IC50 [3]: > 10 µM
SMILES: C/C=C/C(=O)Nc1ccc2ncc(NC(=O)Nc3ccc(Cl)c(C(F)(F)F)c3)nc2c1 [Compound 7b, (E)-N-(3-(3-(4-chloro-3-(trifluoromethyl)phenyl)ureido)quinoxalin-6-yl)but-2-enamide]

IC50 [1]: > 10 µM
melting point: 253 to 255 °C
IC50 [2]: 2.71 ± 0.412 µM
IC50 [3]: 3.24 ± 1.26 µM
SMILES: O=C(CCl)Nc1ccc2ncc(NC(=O)Nc3ccc(Cl)c(C(F)(F)F)c3)nc2c1 [Compound 7c, 2-chloro-N-(3-(3-(4-chloro-3-(trifluoromethyl)phenyl)ureido)quinoxalin-6-yl)acetamide]

IC50 [1]: > 10 µM
melting point: 243 to 246 °C
IC50 [2]: 9.87 ± 0.265 µM
IC50 [3]: > 10 µM
SMILES: N#CCC(=O)Nc1ccc2ncc(NC(=O)Nc3ccc(Cl)c(C(F)(F)F)c3)nc2c1 [Compound 7d, N-(3-(3-(4-chloro-3-(trifluoromethyl)phenyl)ureido)quinoxalin-6-yl)-2-cyanoacetamide]

IC50 [1]: > 10 µM
melting point: 217 to 220 °C
IC50 [2]: 6.14 ± 3.47 µM
IC50 [3]: > 10 µM
SMILES: CN(C)C/C=C/C(=O)Nc1ccc2ncc(NC(=O)Nc3ccc(Cl)c(C(F)(F)F)c3)nc2c1 [Compound 7e, (E)-N-(3-(3-(4-chloro-3-(trifluoromethyl)phenyl)ureido)quinoxalin-6-yl)-4-(dimethylamino)but-2-enamide]

IC50 [1]: 2.5 ± 0.735 µM
inhibitory activity on EGFRwt (in words) [1]: weak activity
melting point: 268 to 271 °C
IC50 [2]: > 10 µM
inhibitory activity on EGFRL858R/T790M (in words) [2]: no inhibitory activity
IC50 [3]: 2.16 ± 1.62 µM
inhibitory activity on EGFRL858R (in words) [3]: weak activity
SMILES: C=CC(=O)Nc1ccc2ncc(NC(=O)Nc3cccc(C(F)(F)F)c3)nc2c1 [Compound 7f, N-(3-(3-(3-(trifluoromethyl)phenyl)ureido)quinoxalin-6-yl)acrylamide]

IC50 [1]: 0.179 ± 0.061 µM
inhibitory activity on EGFRwt (in words) [1]: weak activity
melting point: 260 to 263 °C
IC50 [2]: 9.83 ± 0.297 µM
inhibitory activity on EGFRL858R/T790M (in words) [2]: no inhibitory activity
IC50 [3]: 2.1 ± 0.505 µM
inhibitory activity on EGFRL858R (in words) [3]: weak activity
SMILES: O=C(CCl)Nc1ccc2ncc(NC(=O)Nc3cccc(C(F)(F)F)c3)nc2c1 [Compound 7g, 2-chloro-N-(3-(3-(3-(trifluoromethyl)phenyl)ureido)quinoxalin-6-yl)acetamide]

IC50 [1]: 0.025 ± 0.004 µM
IC50 [2]: 1.68 ± 1.51 µM
inhibitory activity on EGFRL858R/T790M (in words) [2]: weak inhibition
IC50 [3]: 0.018 ± 0.003 µM
SMILES: C=CC(=O)Nc1ccc2ncc(NC(=O)Nc3ccccc3)nc2c1 [Compound 7h, N-(3-(3-phenylureido)quinoxalin-6-yl)acrylamide]
inhibition at 10 µM ([4]; 10 μM, GXF 251L, CXF DiFi, LXFA PC9, LXFL 529L and LXFA NCI-H1975 cell lines, read-out: growth inhibition effect): 55 to 77%
tumor cell lines' growth inhibition / cytotoxic activity (in words) [4]: important cytotoxic activity
inhibition at 10 µM [5]: 86%
inhibition at 10 µM [6]: 72%
inhibition at 10 µM [7]: 77%
inhibition at 10 µM [8]: 55%
inhibition at 10 µM [9]: 88%
inhibition at 10 µM [10]: 93%
inhibition at 10 µM [11]: 33%
inhibition at 10 µM [12]: 80%
inhibition at 10 µM [13]: 76%
inhibition at 10 µM [14]: 76%
inhibition at 10 µM [15]: 92%
inhibition at 10 µM [16]: 15%
inhibition at 10 µM [17]: 89%
inhibition at 10 µM [18]: 56%
inhibition at 10 µM [19]: 67%
inhibition at 10 µM [20]: 86%
inhibition at 10 µM [21]: 84%
inhibition at 10 µM [22]: 82%
inhibition at 10 µM [23]: 76%
inhibition at 10 µM [24]: 89%
inhibition at 10 µM [25]: 75%
inhibition at 10 µM [26]: 82%
inhibition at 10 µM [27]: 68%
inhibition at 10 µM [28]: 58%
inhibition at 10 µM [29]: 74%
inhibition at 10 µM [30]: 40%
inhibition at 10 µM [31]: 91%
inhibition at 10 µM [32]: 91%
inhibition at 10 µM [33]: 8%
inhibition at 10 µM [34]: 87%

IC50 [1]: > 10 µM
melting point: 273 to 276 °C
IC50 [2]: > 10 µM
IC50 [3]: 5.58 ± 4.16 µM
SMILES: C/C=C/C(=O)Nc1ccc2ncc(NC(=O)Nc3ccccc3)nc2c1 [Compound 7i, (E)-N-(3-(3-phenylureido)quinoxalin-6-yl)but-2-enamide]

IC50 [1]: 0.123 ± 0.134 µM
melting point: 249 to 252 °C
IC50 [2]: 0.823 ± 0.613 µM
IC50 [3]: 0.27 ± 0.202 µM
SMILES: O=C(CCl)Nc1ccc2ncc(NC(=O)Nc3ccccc3)nc2c1 [Compound 7j, 2-chloro-N-(3-(3-phenylureido)quinoxalin-6-yl)acetamide]

IC50 [1]: 3.12 ± 0.787 µM
melting point: 238 to 241 °C
IC50 [2]: 6.29 ± 2.79 µM
IC50 [3]: 0.445 ± 0.105 µM
SMILES: N#CCC(=O)Nc1ccc2ncc(NC(=O)Nc3ccccc3)nc2c1 [Compound 7k, 2-cyano-N-(3-(3-phenylureido)quinoxalin-6-yl)acetamide]

IC50 [1]: 0.101 ± 0.012 µM
IC50 [2]: 0.132 ± 0.049 µM
IC50 [3]: 0.032 ± 0.014 µM
SMILES: CN(C)C/C=C/C(=O)Nc1ccc2ncc(NC(=O)Nc3ccccc3)nc2c1 [Compound 7l, (E)-4-(dimethylamino)-N-(3-(3-phenylureido)quinoxalin-6-yl)but-2-enamide]
tumor cell lines' growth inhibition / cytotoxic activity (in words) [4]: did not inhibit the Oncotest® tumor cell lines’ growth in a significant manner

IC50 [1]: > 10 µM
melting point: 259 to 262 °C
IC50 [2]: > 10 µM
IC50 [3]: > 10 µM
SMILES: C=CC(=O)Nc1ccc2ncc(NC(=O)Nc3ccc(F)c(Cl)c3)nc2c1 [Compound 7m, N-(3-(3-(3-chloro-4-fluorophenyl)ureido)quinoxalin-6-yl) acrylamide]
